Literature values as cited in patent US20200061109A1, “ZINC CHLORIDE HYDROXIDE HAVING EXCELLENT ZINC ION SUSTAINED-RELEASABILITY AND PRODUCTION METHOD THEREFOR” (JFE MINERAL COMPANY, LTD., priority 2016, published 2020).

Assays:
[1] = test system: skin; details: in vivo
[2] = test system: fibroblasts

level that increases inflammatory cell infiltration of skin and significantly delays re-epithelialization [1]: not less than 15 mmol/L
Structure (SMILES): [Zn+2] [Zn^2+ ions]
concentration at which no toxicity is shown against fibroblasts [2]: no more than 500 μmol/L
